In brackets after ≈: the same amount, converted by molar mass. Entries after “also recorded” stand apart in the source; their conditions may differ. Marks after values point to notes of the source that are not given here.
Columns and labels:
[1] = tested on: primary cultured rat cerebrocortical neurons; test: Inhibition of hydrogen peroxide-induced neurotoxicity (LDH release); type: cell-based, Sprague-Dawley rat; settings: for IC50: Cerebrocortical neuron
Experimental: (§1) Namely, the cerebral cortices of Sprague-Dawley rat embryos at 16-18 days of gestation were isolated, and meninges […] removed therefrom using a dissecting microscope. The tissue thus obtained was separated into single cells by trituration using a Pasteur pipette in a medium (MEM, Gibco BRL) containing 25 mM glucose, 5% FBS, 5% horse serum and 2 mM L-glutamine. […] A portion of the culture solution was replaced with a fresh culture media twice per week, and cultures were treated with 10 μM cytosine arabinoside for 24 to 72 hours at day 7 to 9 after planting to inhibit the growth of non-neuronal cells. The cultured cells at day 10 to 14 after planting were used in experiments. […] Data were calculated as percentages of the control LDH activity in the culture medium exposed to the respective oxidative insult in the absence of test principles. The inhibitory activity of a test sample for the oxidative nerve cell damage was calculated from the amount of released LDH relative to that of an unchanged control.

[2] = DPPH radical scavenging activity (electron donating ability); settings: for DPPH radical scavenging activity (IC50): isolated compounds
[3] = Superoxide anion radical scavenging activity (xanthine/xanthine oxidase, NBT); settings: for Superoxide anion radical scavenging activity (IC50): isolated compounds
Experimental: Test sample solutions of various concentrations were each mixed with 0.1 mM xanthine, 0.1 mM EDTA, 50 μg/Ml bovine serum albumin (BSA), 25 mM nitroblue tetrazolium (NBT), 40 mM Na2CO3 and 7×10^−3 unit XOD to a final concentration of 200 μl and reacted at 25° C. for 20 min. 6.6 μl of 6 mM CuCl2 was added to the reaction mixture to stop the reaction, and the absorbance of the reaction mixture was measured at 560 nm to determine the amount of formazane.

[4] = tested on: primary cultured rat cerebrocortical neurons; test: Inhibition of xanthine/xanthine oxidase-induced neurotoxicity (LDH release); type: cell-based, Sprague-Dawley rat; settings: for IC50: Cerebrocortical neuron, isolated compounds, rat cerebrocortical neurons, LDH
Experimental: as §1

[5] = tested on: cultured rat cerebral hippocampus cells and cortex cells; test: Inhibition of NMDA-induced neurotoxicity (LDH release); type: cell-based, SD rat; settings: for inhibition at 9 µg/mL / inhibition at 30 µg/mL: Rattus norvegicus, 100 μM NMDA; for inhibition at 9 µg/mL: 9 μg/Ml; for inhibition at 30 µg/mL: 30 μg/Ml
Experimental: The hippocampus and cortex were extracted from the cerebral tissue of 17-day old fetus of a pregnant SD rat using a microscope. The extracted hippocampus and cortex were each separated into discrete single cells using a pipette, and the cells obtained therefrom by centrifuging were inoculated into a 96-well plate coated with poly-L-lysine. […] After 72 hours incubation, the medium was replaced with the same medium but lacking glutamate, and the cells were further incubated. […] The cultured cells prepared in Reference Example 6 were treated with 100 μM NMDA (Sigma) for 2 hours to induce cerebral cell damage, with or without the presence of a fixed amount of a test sample. After 24 hours, the amount of LDH released into the culture solution was measured using an LDH measuring kit (Boehringer Mannheim).

[6] = tested on: rat model of transient focal cerebral ischemic damage; test: Neurological score after middle cerebral artery occlusion; settings: for Neurological score: 10 point means normal, average ± standard error
[7] = tested on: rat model of transient focal cerebral ischemic damage; test: Transient focal cerebral ischemia (middle cerebral artery occlusion and reperfusion), TTC infarction volume and swelling; type: in vivo, Sprague-Dawley rat; settings: one day after occlusion; for Corrected total infarction volume: corrected for swelling; for Corrected total infarction volume / Swelling ratio: rat MCAO, 10 mg/kg intraperitoneally; for Infarction volume, cerebral cortex / Infarction volume, corpus striatum / Infarction volume, total: rat MCAO 120 min and reperfusion, 10 mg/kg intraperitoneally about 30 min after ischemia
[8] = tested on: cultured rat cerebral hippocampus cells and cortex cells; test: Inhibition of growth factor withdrawal-induced neurotoxicity (LDH release); type: cell-based, SD rat
Experimental: The hippocampus and cortex were extracted from the cerebral tissue of 17-day old fetus of a pregnant SD rat using a microscope. The extracted hippocampus and cortex were each separated into discrete single cells using a pipette, and the cells obtained therefrom by centrifuging were inoculated into a 96-well plate coated with poly-L-lysine. […] After 72 hours incubation, the medium was replaced with the same medium but lacking glutamate, and the cells were further incubated. […] The cultured cells prepared in Reference Example 6 were cultured in […] containing 2% B27 supplementary nutrient, and then, the culture solution was replaced with the same […] but lacking B27 supplementary nutrient to induce cell death caused by undernutrition. After 24 hours, the amount of LDH released by cell necrosis was measured using an LDH measuring kit (Boehringer Mannheim) to quantify the extent of cell death.

[9] = isolated compounds, rat cerebrocortical neurons, LDH
[10] = 30 min after occlusion of middle cerebral artery
[11] = 24 hour after occlusion of middle cerebral artery, 10 mg/kg intraperitoneally

Row | SMILES | IC50 [1, 9] [µg/mL] | DPPH radical scavenging activity (IC50) [2] [µg/mL] | Superoxide anion radical scavenging activity (IC50) [3] [µg/mL] | IC50 [4] [µg/mL] | Inhibition of NMDA-induced neurotoxicity (in words) [5] | inhibition at 9 µg/mL [5] [%] | inhibition at 30 µg/mL [5] [%] | Inhibition of hydrogen peroxide-induced neurotoxicity (in words) [1] | DPPH radical scavenging activity (in words) [2] | Superoxide anion radical scavenging activity (in words) [3] | Neurological score [6, 10] | Neurological score [6, 11] | Inhibition of xanthine/xanthine oxidase-induced neurotoxicity (in words) [4] | Corrected total infarction volume [7] | Infarction volume, cerebral cortex [7] | Infarction volume, corpus striatum [7] [mm^3] | Infarction volume, total [7] | Swelling ratio [7] [%] | other results
1 | O=C1c2c(O)cc(O)cc2O[C@H](c2ccc(O)cc2)[C@H]1O [Dihydrokaempferol, dihydrokaempferol] | > 300 | >50 | >50 | > 300 |  |  |  |  |  |  |  |  |  |  |  |  |  |  | 
2 | O=C1c2c(O)cc(O)cc2O[C@H](c2ccc(O)c(O)c2)[C@H]1O [Dihydroquercetin, dihydroquercetin] | 7.8 (≈ 25.6 µM) | 4.49 | 2.48 | 16.6 (≈ 54.6 µM) | inhibit | 33 | 47 | strongly inhibit | potent | potent | 2.33 ± 0.16 | 3.00 ± 0.33 | strongly inhibit | 130.7 ± 13.1 mm^3 | 169.4 ± 12.7 mm^3 | 30.1 ± 4.3 | 199.5 ± 16.5 mm^3 | 11.9 ± 0.5 | 
3 | COc1c(-c2ccc(O)cc2)oc2cc(O)cc(O)c2c1=O [Kaempferol 3-methyl ether, kaempferol 3-methyl ether] |  | >50 | >50 |  |  |  |  |  |  |  |  |  |  |  |  |  |  |  | Inhibition of hydrogen peroxide-induced neurotoxicity (IC50) [1, 9]: >300 µg/mL
4 | O=c1c(O)c(-c2ccc(O)cc2)oc2cc(O)cc(O)c12 [Kaempferol, kaempferol] | 29.7 (≈ 104 µM) | >50 | >50 | 24.9 (≈ 87 µM) |  |  |  | strongly inhibit |  |  |  |  | strongly inhibit |  |  |  |  |  | 
5 | COc1c(-c2ccc(O)c(O)c2)oc2cc(O)cc(O)c2c1=O [Quercetin 3-methyl ether, quercetin 3-methyl ether] | 0.6 (≈ 1.9 µM) | 3.76 | 4.77 | 0.65 (≈ 2.06 µM) | inhibit | 21 | 54 | strongly inhibit; also recorded: highest inhibitory activity | potent | potent | 2.36 ± 0.15 | 4.81 ± 0.44 | strongly inhibit; also recorded: highest inhibitory activity | 81.6 ± 17.8* mm^3 | 81.2 ± 20.8* mm^3 | 28.9 ± 3.1 | 110.1 ± 22.9* mm^3 | 5.8 ± 0.7 | Inhibition of growth factor withdrawal-induced neurotoxicity (in words) [8]: inhibited; inhibition at 9 µg/mL ([8]; Rattus norvegicus, 9 μg/Ml): 31%; inhibition at 30 µg/mL ([8]; Rattus norvegicus, 30 μg/Ml): 86%; Neurological score compared with the control (in words) [6]: significantly higher
6 | O=c1c(O)c(-c2ccc(O)c(O)c2)oc2cc(O)cc(O)c12 [Quercetin, quercetin] | 4.1 (≈ 13.6 µM) | 2.89 | >50 | 5.5 (≈ 18.2 µM) |  |  |  | strongly inhibit | potent |  | 2.44 ± 0.24 | 4.56 ± 0.53 | strongly inhibit | 110.6 ± 15.8 mm^3 | 130.5 ± 18.6 mm^3 | 30.1 ± 4.9 | 161.1 ± 21.4 mm^3 | 9.1 ± 1.1 | 

— patent US7563467B2, “Use of an Opuntia ficus-indica extract and compounds isolated therefrom for protecting nerve cells” (Korea Institute of Science and Technology, priority 2001, dated 2009)
